In one data set the target is NTR1 (Homo sapiens, UniProt P30989). In words: NTR1 Ca2+ Flux dose response (ChanTest, CHO). Type of data set: cell-based. Details: host or cells: CHO. The settings on record: profiled by ChanTest. The procedure:
The NTR1 Ca^2+ Flux assay was performed by ChanTest (Rockville, Md.). The assay used a CHO cell line, provided by ChanTest, which stably expressed the NTR1 receptor. The cells were grown and plated in Ham's F12 (11765) that was supplemented with fetal bovine serum (10437). Both were supplied by Gibco/Life Technologies (Carlsbad, Calif.). The DPBS (21-031CV) used in the assay was obtained from Cellgro/Mediatech and the G418 (ant-gn-1) was supplied by Invivogen. The Fluo-4 NW Dye (Invitrogen F36206) used to detect calcium mobilization was sourced by Invitrogen. […]
NTSR1 (NTR1) CHO cells are plated in 20 uL of assay media containing Ham's F12 supplemented with 10% fetal bovine serum and 0.4 mg/mL G418 at a concentration of 1.0×10^6 cells per mL into black, 384-well assay plates with clear bottoms using a Multidrop liquid handler. […] Following the incubation in the presence of dye, the assay is run on a Molecular Devices FlexStation-III using 494 excitation and 516 emission wavelengths set to read for 90 seconds with the addition at 18 seconds of 5 uL of 6× final concentration of test compounds and peptide control diluted in assay media containing 0.1% BSA and no more than 9% DMSO to yield a maximum final DMSO concentration of 1.5%. Percent activation is calculated based on the maximum response minus the minimum value over the time course relative to the neurotensin 1 control peptide at 100 pM. […]
For orientation: Calcium flux is commonly read through the fluorescence of an indicator in the cells.

Another data set addresses T1, NTSR1 (NTR1) (Homo sapiens, UniProt P30989).
T1 construct: host or cells: CHO-K1
The data set can be described thus: NTR1 β-Arrestin dose response (DiscoveRx PathHunter, CHO-K1). Type of data set: cell-based. The procedure:
The NTR1 β-Arrestin assays were performed using a PathHunter™ eXpress kit (93-0446E2) which contained the NTSR1 (NTR1) CHO cell line, OCC2 media (30-409), as well as the PathHunter Detection Reagents (93-0446E2). The kit was obtained from DiscoveRx (Fremont, Calif.). The assay employed the same neurotensin 1 peptide as a control as was used in the NTR1 primary assay. The assay was run in 1536-well, white, solid-bottom tissue culture plates (3727) from Corning.
On day one of the assay, 5 uL of a cell suspension containing 120,000 NTSR1 (NTR1) CHO-K1 cells per mL in OCC2 media is added to each well of a 1536-well assay plate using a Multidrop Combi. The assay plates are then incubated for 48 hours at 37° C., under 5% CO2. Following the two day incubation, a volume of 20, 10, and 5 nL of 10 and 1.2 mM test compounds in DMSO were transferred from source wells to test compound wells in assay plates with a LabCyte Echo to achieve final assay concentrations ranging from 33 to 1.03 uM for each test sample. Test compound wells and control wells were backfilled with DMSO to achieve a final volume of DMSO of 20 nL or a final assay concentration of 0.33%. […] Plates are again centrifuged as previously described then incubated at room temperature for 1 hour before being read on the PerkinElmer using a luminescent protocol.

The nature of data set [1]: Plasma protein binding, Rapid Equilibrium Device, mouse plasma. Type of data set: in vitro ADME. The conditions noted are these: mouse plasma (EDTA), diluted 1:1 with PBS, read-out: Plasma Protein Binding (% Bound) (converted). The procedure: The extent of compound bound to plasma proteins was measured using the Rapid Equilibrium Device (Pierce Thermo Scientific, Rockford Ill.). The base plate was rinsed with […] followed by 2× washes with ultrapure water and allowed to dry. Human and mouse plasma (BioChemed Services, Winchester Va.) collected in EDTA was allowed to thaw at room temperature and then warmed to 37° C., and diluted 1:1 (v:v) with 1×PBS, pH 7.4, prior to the assay. The compound (1.0 and 10.0 μM final) was added to the chamber containing 300 μl plasma:PBS. Next, 500 μl of dialysis buffer (1×PBS, pH7.4) was added to the buffer chambers of the inserts. The chambers were covered with sealing tape and incubated at 37° C. on an orbital shaker at 300× rpm for 4 hours. […] Results reported are the mean of each reaction duplicate, normalized to the internal standard, and expressed as a percent compound bound after the incubation time. The amount of compound in the supernatant was determined by LC/MS/MS and the percent of free and bound compounds were calculated with the following formulas: Percent of free parent compound=(amount of compound in receiver chamber/amount of compound in donor chamber)*100.

T1 sequence (P30989 whole entry): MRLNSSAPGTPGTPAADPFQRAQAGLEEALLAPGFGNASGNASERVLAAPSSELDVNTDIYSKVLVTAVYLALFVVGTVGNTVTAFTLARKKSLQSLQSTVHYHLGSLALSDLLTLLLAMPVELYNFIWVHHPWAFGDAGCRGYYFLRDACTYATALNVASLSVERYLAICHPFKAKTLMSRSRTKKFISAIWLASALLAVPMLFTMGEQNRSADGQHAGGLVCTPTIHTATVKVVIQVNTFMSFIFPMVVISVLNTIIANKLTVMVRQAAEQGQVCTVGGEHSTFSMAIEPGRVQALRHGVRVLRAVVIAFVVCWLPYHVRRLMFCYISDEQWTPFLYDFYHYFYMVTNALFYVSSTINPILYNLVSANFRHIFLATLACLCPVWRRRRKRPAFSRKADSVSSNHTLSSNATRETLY
NTR1, sequence (P30989 whole entry): as above

A word on the EC50: it is the midpoint of the concentration-response curve. For the compound `COc1cc2nc(C3CC3)nc(N3CCN(c4ccccc4OC)CC3)c2cc1OC` [Compound 315, 2-cyclopropyl-6,7-dimethoxy-4-(4-(2-methoxyphenyl)piperazin-1-yl)quinazoline], the “NTR1 Ca2+ Flux assay activity” value on NTR1 was “not active”. Further, the response at NTSR1 (NTR1) was half-maximal at 3.41 µM (EC50). The fraction unbound at 4 h, 1 μM in data set [1] (pH 7.4, 1 μM) was 0.0033. For the same compound, the fraction unbound at 4 h, 10 μM in data set [1] (pH 7.4, 10 μM) was 0.0116.

Values taken from patent US9868707B2, “Small molecule agonists of neurotensin receptor 1” (SANFORD-BURNHAM MEDICAL RESEARCH INSTITUTE, priority 2012, dated 2018).
